Source: ChEMBL document CHEMBL1201862, “PubChem BioAssay data set” (2004)
Each block holds one molecule with its values, some of them ahead of it. Active and inactive are the calls of the source.

What was measured:
CAAX prenyl protease 2 = molecular target: T1, CAAX prenyl protease 2 (Saccharomyces cerevisiae S288c, UniProt Q03530); experiment: yeast Rce1 CaaX protease inhibitors, dose response, biochemical, plate reader, dry powder retest (AID 588851)
T1 sequence (Q03530 whole entry): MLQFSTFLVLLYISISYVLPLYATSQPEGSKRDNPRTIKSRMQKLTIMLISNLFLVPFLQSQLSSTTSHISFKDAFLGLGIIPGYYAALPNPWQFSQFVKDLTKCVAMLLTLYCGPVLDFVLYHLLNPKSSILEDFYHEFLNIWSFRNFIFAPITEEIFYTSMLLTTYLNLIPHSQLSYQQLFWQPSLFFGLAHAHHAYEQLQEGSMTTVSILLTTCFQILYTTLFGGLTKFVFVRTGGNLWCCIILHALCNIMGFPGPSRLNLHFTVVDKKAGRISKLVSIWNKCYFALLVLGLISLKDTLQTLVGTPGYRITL

[1] = inhibitors of intracellular T. cruzi replication, confirmation, NIH3T3 host cells, beta-gal luminescence (AID 2044); assay type: functional, cell-based;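 further: intracellular parasites grown in NIH/3T3 mouse fibroblasts as host cells; luminescent beta-galactosidase reporter signal from transgenic T. cruzi replicating inside host cells; inhibitors lower the luminescence signal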
[2] = molecular target: T2, Heat shock factor protein 1 (Mus musculus, UniProt P38532); experiment: HSF1 potentiators in luciferase reporter cells, confirmation, cell-based, NIH3T3, luminescence, dose retest (AID 435004); assay type: functional;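 further: stress induced by proteasome inhibitor MG132 added 30 min after compound; luciferase reporter driven by HSF1 response element in NIH3T3 cells; actives raise luminescence as potentiators of the MG132 stress response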
T2 sequence (P38532 whole entry): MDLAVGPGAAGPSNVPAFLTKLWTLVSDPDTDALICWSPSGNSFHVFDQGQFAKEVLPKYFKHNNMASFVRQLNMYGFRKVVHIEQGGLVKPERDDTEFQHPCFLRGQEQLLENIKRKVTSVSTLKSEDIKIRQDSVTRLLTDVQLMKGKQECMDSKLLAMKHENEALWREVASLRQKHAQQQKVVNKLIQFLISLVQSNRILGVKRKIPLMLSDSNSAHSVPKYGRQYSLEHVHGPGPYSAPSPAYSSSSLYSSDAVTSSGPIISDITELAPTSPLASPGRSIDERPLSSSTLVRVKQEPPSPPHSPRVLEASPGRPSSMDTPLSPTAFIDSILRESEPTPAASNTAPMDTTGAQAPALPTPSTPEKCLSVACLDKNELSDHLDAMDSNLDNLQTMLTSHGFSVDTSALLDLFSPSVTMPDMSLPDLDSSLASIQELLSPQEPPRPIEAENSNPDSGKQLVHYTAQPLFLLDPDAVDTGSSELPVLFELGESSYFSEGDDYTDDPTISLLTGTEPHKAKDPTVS

[3] = cytotoxicity toward NIH3T3 fibroblasts, dose response, counter-screen, cell-based, ATP luminescence, mouse fibroblasts (AID 2010); assay type: functional;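 further: cells exposed to compound for about 90 hours before reading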
[4] = molecular target: T3, Calpain-2 catalytic subunit (Sus scrofa, UniProt P43367); experiment: pig calpain II inhibitor potency, dose response, biochemical, fluorogenic peptide substrate (AID 1420); assay type: functional
T3 sequence (P43367 whole entry): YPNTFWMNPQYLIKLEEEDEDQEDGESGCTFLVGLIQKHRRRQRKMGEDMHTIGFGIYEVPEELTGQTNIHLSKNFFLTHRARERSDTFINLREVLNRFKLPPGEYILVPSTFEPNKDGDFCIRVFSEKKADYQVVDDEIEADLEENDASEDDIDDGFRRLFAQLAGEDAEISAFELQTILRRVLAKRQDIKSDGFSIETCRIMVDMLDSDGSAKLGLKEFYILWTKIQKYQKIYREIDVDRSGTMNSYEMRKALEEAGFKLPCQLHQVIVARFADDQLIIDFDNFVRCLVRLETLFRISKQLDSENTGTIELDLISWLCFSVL

HEK293 [5] = experiment: optical interference in Abeta FP readout, dose response, artefact control for IDE activator project, biochemical, fluorescence polarization (AID 588442); assay type: functional, cell-based; details: Homo sapiens
Insulin-degrading enzyme [6] = molecular target: T4, Insulin-degrading enzyme (Homo sapiens, UniProt P14735); experiment: activators of recombinant IDE enzyme, dose response, counter-screen for IDE activator project, biochemical, fluorescence polarization (AID 588681)
Insulin-degrading enzyme [7] = molecular target: T4, Insulin-degrading enzyme; experiment: activators of endogenous IDE in HEK cells, dose response, cell-based, fluorescence polarization (AID 588439); assay type: functional
HEK293 [8] = experiment: HEK cell cytotoxicity by LDH release, dose response, cytotoxicity control for IDE activator project, fluorescence, HEK cells (AID 588440); assay type: functional, cell-based; details: Homo sapiens;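 further: cytotoxicity by LDH release measuring loss of membrane integrity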
CHO-K1 = experiment: (§1) Counterscreen for antagonists of the orexin 1 receptor (OX1R; HCRTR1): Homogeneous time resolved fluorescence (HTRF)-based cell-based dose response assay to identify antagonists of the parental CHO-K1 cell line. [Related pubchem assays (depositor defined):AID434989, AID435008, AID463079, AID485270, AID492963, AID492964, AID492965, AID493232, AID504699, AID504701]; assay type: functional; details: Cricetulus griseus
Orexin receptor type 2 [9] = molecular target: T5, Orexin receptor type 2 (Homo sapiens, UniProt O43614); experiment: Counterscreen assay for antagonists of the orexin 1 receptor (OX1R; HCRTR1): Fluorescence-based cell-based dose response assay for antagonists of the orexin 2 receptor (OX2R; HCRTR2), run by assay provider.; assay type: functional
Orexin receptor type 2 [10] = molecular target: T5, Orexin receptor type 2; experiment: Counterscreen assay for antagonists of the orexin 1 receptor (OX1R; HCRTR1): Homogeneous Time Resolved Fluorescence (HTRF)-based cell-based dose response assay for antagonists of the orexin 2 receptor (OX2R; HCRTR2), run by assay provider.; assay type: functional
[11] = molecular target: T6, Orexin/Hypocretin receptor type 1 (Homo sapiens, UniProt O43613); experiment: Homogeneous Time Resolved Fluorescence (HTRF)-based cell-based high throughput dose response assay for antagonists of the orexin 1 receptor (OX1R; HCRTR1). [Related pubchem assays (depositor defined):AID434989, AID435008, AID463079, AID485270, AID492963, AID492964, AID492965, AID493232, AID504717, AID504718]; assay type: functional
[12] = as §1, with “Fluorescence-based” for “Homogeneous time resolved fluorescence (HTRF)-based”, “cell-based high throughput” for “cell-based”, “CHO” for “CHO-K1”; assay type: functional
[13] = molecular target: T6, Orexin/Hypocretin receptor type 1; experiment: Fluorescence-based cell-based high throughput dose response assay for antagonists of the orexin 1 receptor (OX1R; HCRTR1). [Related pubchem assays (depositor defined):AID434989, AID435008, AID463079, AID485270, AID492963, AID492964, AID492965, AID493232, AID504717, AID504718]; assay type: functional
Caspase-3 = molecular target: T7, Caspase-3 (Homo sapiens, UniProt P42574); experiment: SAR Analysis of small molecule inhibitors of Sentrin-specific proteases (SENPs) using a Caspase-3 Selectivity assay. [Related pubchem assays (depositor defined):AID2540, AID2599, AID434973, AID489001]; assay type: functional
T7 sequence (P42574 whole entry): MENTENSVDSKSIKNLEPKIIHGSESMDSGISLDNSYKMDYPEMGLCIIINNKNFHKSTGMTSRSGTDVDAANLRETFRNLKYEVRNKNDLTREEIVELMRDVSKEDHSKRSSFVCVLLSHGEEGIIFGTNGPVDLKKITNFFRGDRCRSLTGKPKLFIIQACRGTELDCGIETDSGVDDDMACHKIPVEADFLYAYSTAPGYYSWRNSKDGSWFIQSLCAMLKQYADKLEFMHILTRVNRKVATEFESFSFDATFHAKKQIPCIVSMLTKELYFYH

[14] = molecular target: T8, Sentrin-specific protease 6 (Homo sapiens, UniProt Q9GZR1); experiment: SAR Analysis of small molecule inhibitors of Sentrin-specific protease 6 (SENP6) using a Luminescent assay. [Related pubchem assays (depositor defined):AID2582, AID2599]; assay type: functional
T8 sequence (Q9GZR1 whole entry): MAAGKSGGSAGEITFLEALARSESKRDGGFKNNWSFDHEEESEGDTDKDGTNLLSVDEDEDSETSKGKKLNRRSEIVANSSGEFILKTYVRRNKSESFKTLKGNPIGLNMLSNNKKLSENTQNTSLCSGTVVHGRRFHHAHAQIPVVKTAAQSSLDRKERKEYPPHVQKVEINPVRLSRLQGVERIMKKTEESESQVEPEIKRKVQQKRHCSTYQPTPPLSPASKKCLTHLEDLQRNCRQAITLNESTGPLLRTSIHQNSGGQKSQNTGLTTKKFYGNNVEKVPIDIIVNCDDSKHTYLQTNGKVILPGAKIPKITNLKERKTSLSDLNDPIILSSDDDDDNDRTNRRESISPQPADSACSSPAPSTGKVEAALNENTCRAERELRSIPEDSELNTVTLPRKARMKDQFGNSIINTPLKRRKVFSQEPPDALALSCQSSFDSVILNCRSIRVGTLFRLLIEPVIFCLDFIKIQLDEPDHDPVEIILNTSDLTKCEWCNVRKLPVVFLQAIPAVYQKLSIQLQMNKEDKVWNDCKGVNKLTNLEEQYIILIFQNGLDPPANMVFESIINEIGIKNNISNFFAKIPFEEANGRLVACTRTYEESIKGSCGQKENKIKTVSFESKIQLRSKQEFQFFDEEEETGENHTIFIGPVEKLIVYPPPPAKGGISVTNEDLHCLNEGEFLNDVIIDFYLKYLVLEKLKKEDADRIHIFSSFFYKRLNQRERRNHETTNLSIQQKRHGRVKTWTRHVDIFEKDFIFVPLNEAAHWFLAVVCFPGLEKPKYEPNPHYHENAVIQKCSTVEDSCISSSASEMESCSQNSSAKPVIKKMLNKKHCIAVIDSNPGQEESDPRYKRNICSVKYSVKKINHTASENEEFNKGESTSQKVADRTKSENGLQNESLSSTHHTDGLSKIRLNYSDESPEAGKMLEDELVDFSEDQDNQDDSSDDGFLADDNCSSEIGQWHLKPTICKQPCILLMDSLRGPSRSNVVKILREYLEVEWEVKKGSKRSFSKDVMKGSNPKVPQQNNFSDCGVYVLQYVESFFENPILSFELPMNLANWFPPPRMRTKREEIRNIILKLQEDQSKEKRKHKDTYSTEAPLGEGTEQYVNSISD

[15] = molecular target: T9, Sentrin-specific protease 7 (Homo sapiens, UniProt Q9BQF6); experiment: SENP7 protease inhibitors, SAR follow-up, biochemical, luminescence (AID 504497); assay type: functional
T9 sequence (Q9BQF6 whole entry): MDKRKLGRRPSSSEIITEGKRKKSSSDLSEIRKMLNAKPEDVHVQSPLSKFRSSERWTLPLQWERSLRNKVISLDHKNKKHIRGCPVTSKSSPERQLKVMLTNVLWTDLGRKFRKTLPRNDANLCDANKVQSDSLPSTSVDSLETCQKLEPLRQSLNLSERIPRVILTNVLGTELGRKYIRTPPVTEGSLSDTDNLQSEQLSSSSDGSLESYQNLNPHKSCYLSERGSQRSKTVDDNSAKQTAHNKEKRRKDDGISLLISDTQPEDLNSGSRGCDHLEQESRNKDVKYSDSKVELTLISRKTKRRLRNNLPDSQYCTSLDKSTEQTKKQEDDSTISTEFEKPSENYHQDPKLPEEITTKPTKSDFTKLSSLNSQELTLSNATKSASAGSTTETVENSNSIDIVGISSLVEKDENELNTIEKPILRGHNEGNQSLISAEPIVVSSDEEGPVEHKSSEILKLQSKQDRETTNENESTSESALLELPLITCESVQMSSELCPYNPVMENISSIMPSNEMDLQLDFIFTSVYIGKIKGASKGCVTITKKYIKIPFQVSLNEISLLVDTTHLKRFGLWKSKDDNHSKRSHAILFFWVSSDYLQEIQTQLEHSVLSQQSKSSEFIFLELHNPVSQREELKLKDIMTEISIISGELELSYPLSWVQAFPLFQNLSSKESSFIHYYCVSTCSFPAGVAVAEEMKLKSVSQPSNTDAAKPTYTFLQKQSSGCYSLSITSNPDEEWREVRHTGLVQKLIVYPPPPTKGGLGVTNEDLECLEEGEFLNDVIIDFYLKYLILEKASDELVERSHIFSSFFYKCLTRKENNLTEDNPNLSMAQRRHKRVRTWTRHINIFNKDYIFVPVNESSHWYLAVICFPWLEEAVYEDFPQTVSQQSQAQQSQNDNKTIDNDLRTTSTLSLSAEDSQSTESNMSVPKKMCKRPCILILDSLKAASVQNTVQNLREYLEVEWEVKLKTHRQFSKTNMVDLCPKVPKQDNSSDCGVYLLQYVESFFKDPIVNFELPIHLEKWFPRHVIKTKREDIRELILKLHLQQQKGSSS

[16] = molecular target: T10, Sentrin-specific protease 8 (Homo sapiens, UniProt Q96LD8); experiment: SENP8 protease inhibitors, SAR follow-up, biochemical, luminescence (AID 504501); assay type: functional
T10 sequence (Q96LD8 whole entry): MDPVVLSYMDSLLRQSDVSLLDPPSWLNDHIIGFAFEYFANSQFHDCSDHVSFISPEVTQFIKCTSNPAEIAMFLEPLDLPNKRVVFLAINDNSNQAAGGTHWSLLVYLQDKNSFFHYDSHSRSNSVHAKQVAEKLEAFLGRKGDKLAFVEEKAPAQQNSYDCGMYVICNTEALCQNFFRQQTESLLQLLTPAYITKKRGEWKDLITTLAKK

T6 sequence (O43613 whole entry): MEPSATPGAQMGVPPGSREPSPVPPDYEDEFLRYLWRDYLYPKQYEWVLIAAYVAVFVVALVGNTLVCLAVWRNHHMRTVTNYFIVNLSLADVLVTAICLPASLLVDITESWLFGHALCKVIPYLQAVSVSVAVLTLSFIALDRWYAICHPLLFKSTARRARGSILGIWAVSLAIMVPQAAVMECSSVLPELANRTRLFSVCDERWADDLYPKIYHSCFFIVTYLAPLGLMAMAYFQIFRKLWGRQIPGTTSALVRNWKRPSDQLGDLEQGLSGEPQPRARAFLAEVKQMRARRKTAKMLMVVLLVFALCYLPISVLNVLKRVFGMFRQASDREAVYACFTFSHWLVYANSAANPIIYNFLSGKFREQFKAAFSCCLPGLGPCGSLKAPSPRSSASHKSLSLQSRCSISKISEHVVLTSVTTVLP
T4 sequence (P14735 whole entry): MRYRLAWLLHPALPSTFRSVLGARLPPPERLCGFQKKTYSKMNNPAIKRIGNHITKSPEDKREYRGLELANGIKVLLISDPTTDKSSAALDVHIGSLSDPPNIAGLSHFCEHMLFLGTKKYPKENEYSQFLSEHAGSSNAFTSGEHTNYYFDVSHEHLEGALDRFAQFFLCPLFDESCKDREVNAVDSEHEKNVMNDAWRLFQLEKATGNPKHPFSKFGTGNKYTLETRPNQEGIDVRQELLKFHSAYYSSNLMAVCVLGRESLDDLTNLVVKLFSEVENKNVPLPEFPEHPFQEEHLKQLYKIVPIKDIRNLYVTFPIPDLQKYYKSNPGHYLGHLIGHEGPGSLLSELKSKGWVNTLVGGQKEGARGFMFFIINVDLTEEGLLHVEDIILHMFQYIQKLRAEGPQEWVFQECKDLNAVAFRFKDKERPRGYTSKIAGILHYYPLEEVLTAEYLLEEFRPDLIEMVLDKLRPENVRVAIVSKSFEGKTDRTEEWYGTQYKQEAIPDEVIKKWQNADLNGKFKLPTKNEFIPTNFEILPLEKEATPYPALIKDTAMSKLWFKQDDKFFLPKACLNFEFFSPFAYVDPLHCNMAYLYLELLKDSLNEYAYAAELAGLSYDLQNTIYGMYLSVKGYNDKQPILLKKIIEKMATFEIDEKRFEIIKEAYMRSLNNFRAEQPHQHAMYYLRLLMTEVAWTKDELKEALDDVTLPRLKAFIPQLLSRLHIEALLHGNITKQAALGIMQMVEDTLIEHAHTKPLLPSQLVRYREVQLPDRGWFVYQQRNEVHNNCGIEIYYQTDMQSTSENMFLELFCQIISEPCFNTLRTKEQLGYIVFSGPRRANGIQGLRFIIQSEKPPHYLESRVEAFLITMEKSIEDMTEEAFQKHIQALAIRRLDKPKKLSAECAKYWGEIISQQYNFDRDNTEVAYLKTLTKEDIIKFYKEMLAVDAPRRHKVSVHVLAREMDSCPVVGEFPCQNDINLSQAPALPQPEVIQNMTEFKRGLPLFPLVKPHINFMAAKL
T5 sequence (O43614 whole entry): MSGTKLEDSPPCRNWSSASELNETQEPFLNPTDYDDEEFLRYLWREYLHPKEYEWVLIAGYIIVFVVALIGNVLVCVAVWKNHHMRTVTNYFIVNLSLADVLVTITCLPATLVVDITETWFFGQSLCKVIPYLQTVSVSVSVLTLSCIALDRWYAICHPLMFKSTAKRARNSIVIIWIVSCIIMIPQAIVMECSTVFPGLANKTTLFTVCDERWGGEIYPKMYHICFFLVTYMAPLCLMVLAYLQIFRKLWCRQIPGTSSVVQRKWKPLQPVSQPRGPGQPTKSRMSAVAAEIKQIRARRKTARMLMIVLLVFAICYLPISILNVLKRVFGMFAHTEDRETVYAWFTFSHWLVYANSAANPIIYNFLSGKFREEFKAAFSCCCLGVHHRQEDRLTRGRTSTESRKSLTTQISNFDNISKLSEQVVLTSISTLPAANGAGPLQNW

Structure (SMILES): COc1ccc(-n2c(SCc3ccc([N+](=O)[O-])cc3)nnc2-c2ccc(C)cc2)cc1
AC50 (CAAX prenyl protease 2): 5.39 µM (active)
EC50 [1]: 1.35 µM (active)
EC50 [2]: > 260 µM (inactive)
EC50 [3]: > 60 µM (inconclusive)

Structure (SMILES): COc1ccc(OCCNc2cc(N3CCOCC3)ccc2[N+](=O)[O-])cc1
IC50 [4]: 13.8 µM (not active)
EC50 (HEK293 [5]): > 56 µM (inactive)
EC50 (Insulin-degrading enzyme [6]): > 54.7 µM (inactive)
EC50 (Insulin-degrading enzyme [7]): > 54.7 µM (inactive)
IC50 (HEK293 [8]): > 89.3 µM (inactive)

Structure (SMILES): COc1cccc(/C=C2/Oc3ccccc3N(CC(=O)NCC3CCCO3)C2=O)c1 (centres undefined)
IC50 (CHO-K1): > 66.2 µM (inactive)
IC50 (Orexin receptor type 2 [9]): 3.82 µM (active)
IC50 (Orexin receptor type 2 [10]): 0.96 µM (active)
IC50 [11]: 0.254 µM (active)
IC50 [12]: > 49.7 µM (inactive)
IC50 [13]: 0.426 µM (active)

IC50 (Caspase-3): 14.4 µM (active)
IC50 [14]: > 99 µM (inactive)
IC50 [15]: 33.8 µM (active)
Structure (SMILES): O=C(Nc1ccncc1)c1ccc2c(c1)OCO2
IC50 [16]: > 99 µM (inactive)
